Measurements from patent US10913773B2, “Bicyclic peptidyl inhibitor of tumor necrosis factor-alpha” (Ohio State Innovation Foundation, priority 2016, dated 2021).

Tests used:
TNFα [1] = target: T1, TNFα (Homo sapiens, UniProt P01375); test: Fluorescence anisotropy (FA) binding of fluorescently labeled bicyclic peptides to TNFα; settings: labeled at free N-terminal amine with 6-carboxyfluorescein
T1 construct: ybbR tag (13 aa) (N); made in house; host or cells: Escherichia coli
Method: FITC-labeled bicyclic peptide (50 or 100 nM) were incubated with varying concentrations of TNFα (0-5 μM) in 30 mM HEPES, pH 7.4, 150 mM NaCl, and 2 mM magnesium acetate for 2 h. The FA values were measured on a Molecular Devices Spectramax M5 spectrofluorimeter, with excitation and emission wavelengths at 485 and 525 nm, respectively. Equilibrium dissociation constants (KD) were determined by plotting the FA values as a function of TNFα concentration and fitting the data to the following equation
(§1) [formula] where Y is the measured anisotropy at a given TNFα concentration x; L is the bicyclic peptide concentration; Qb/Qf is the correction fact for dye-protein interaction; Amax is the maximum anisotropy when all the peptides are bound to TNFα, while Amin is the minimum anisotropy. Competition experiments were performed by incubating 100 nM Asn-Asn-Asn-Lys(FITC)-labeled anticachexin C1 (Table 1), 2 μM of TNFα, and varying concentrations of unlabeled competitor peptide (0-20 μM) in the above buffer for 2 h. The FA values were plotted against the competitor peptide concentration to determine the IC50 values.
To identify residues significant for TNFα binding, each residue of anticachexin C1 (other than D-alanine at position-3, L-lysine at position-4, and L-2,3-diaminopropionic acid (Dap) at position-10) was individually replaced with an alanine (or D-alanine). To facilitate binding analysis by fluorescence anisotropy (FA), a tetrapeptide NNNK (SEQ ID NO: 1) was added to the C-terminus of each bicyclic peptide and the lysine side chain was labeled with fluorescein isothiocyanate (FITC) during solid-phase synthesis (Scheme 1). The three asparagine residues were added to improve the aqueous solubility of the bicyclic peptides. The bicyclic peptide was prepared by first synthesizing the full-length linear sequence on Rink amide resin using standard Fmoc/HBTU chemistry. The side chains of the two internal cyclization residues, L-lysine and Dap, were protected with monomethoxytrityl (Mmt) groups, whereas the C-terminal lysine was protected with an allyloxycarbonyl (Alloc) group. After removal of the N-terminal Fmoc group, a trimesic acid was coupled to the N-terminal amine using HBTU as the coupling agent. Next, the Mmt groups were selectively removed from the Lys and Dap side chains by 2% TFA and the peptide was cyclized by treatment with (benzotriazol-1-yloxy)tripyrrolidinophosphonium hexafluorophosphate (PyBOP). The Alloc group on the C-terminal lysine side chain was removed by treatment with Pd(PPh3)4 and the bicyclic peptide was selectively labeled at the C-terminal lysine by treating the resin with FITC. […] On the other hand, phenylglycine (Phg)-1 and glycine-7 play more minor roles in binding.

[2] = test system: TNFα-induced activation of NF-κB; test: NF-κB luciferase reporter assay in NF-κB reporter (Luc)-HEK293 cells; type: cell-based; settings: 6 μM peptide, 5 ng/mL TNFα
Method: NF-κB reporter (Luc)-HEK293 cells 30 (BPS Bioscience, San Diego, Calif.) were seeded at a density of 5,000 cells per well in Greiner white 96-well cell culture microplates in 50 μL of growth medium (DMEM+10% FBS+1% P/S). Cells were incubated overnight at 37° C. in the presence of 5% CO2. TNFα (5 ng/mL) and different concentrations of compound C1-74-2 (0-6 μM) were incubated for 1 h in 5 μL of growth medium (DMEM+5% FBS+1% P/S) at 37° C. in the presence of 5% CO2. The growth medium in the plate was replaced with 50 μL of fresh medium (DMEM+5% FBS+1% P/S). The pre-incubated TNFα and peptide mixture (5 μL) was added into each well, with 5 μL of growth medium only added as the control. The cells were incubated at 37° C. with 5% CO2 for 2 h. Fifty μL of ONE-Step™ Luciferase Assay reagent (BPS Bioscience, San Diego, Calif.) was added into each well. The whole plate was incubated at room temperature for 5 min and the luminescence generated was measured on a Tecan M1000 Pro microplate reader.
WEHI-13VAR cells were treated with TNFα in the presence of increasing concentrations of C1-74-2 (0-20 μM) and the cell lysates were probed with antibodies specific for phosphorylated JNK (p-JNK) as well as total JNK. […]

Serum stability test = type: in vitro ADME, human; settings: human, diluted human serum (25%), supernatant after centrifugation; 8 h at 37° C.; read-out: Degradation in human serum
Method: Diluted human serum (25%) was centrifuged at 15,000 rpm for 10 min, and the supernatant was collected. A peptide stock solution was diluted into the supernatant to a final concentration of 5 μM and incubated at 37° C. At various time points (0-8 h), 200-μL aliquots were withdrawn and mixed with 50 μL of 15% trichloroacetic acid and 200 μL of acetonitrile. After incubation at 4° C. overnight, the mixture was centrifuged at 15,000 rpm for 10 min in a microcentrifuge, and the supernatant was analyzed by reversed-phase HPLC equipped with an analytical C18 column (Waters). The amount of remaining intact peptide (%, relative that of time zero control) was determined by integrating the area underneath the peptide peak (monitored at 214 nm).

TNFα [3] = target: T1, TNFα; test: FA-based competition with FITC-labeled C1 for binding to TNFα; settings: 2 μM TNFα, 100 nM C1-NNNK(FITC), 0-15 μM competitor
Method: (§2) FIG. 6A is a graph showing the competition for binding to TNFα (2 μM) between C1-74-2 (0-15 μM) and C1-NNNK(FITC) (100 nM) as monitored by FA. FIG. 6B is a graph showing binding of infliximab-HRP conjugate to immobilized TNFα in the absence and presence of C1-74-2 (0, 2, or 6 μM).
as §1
Target sequence in this assay (P01375 77-233 limits assumed): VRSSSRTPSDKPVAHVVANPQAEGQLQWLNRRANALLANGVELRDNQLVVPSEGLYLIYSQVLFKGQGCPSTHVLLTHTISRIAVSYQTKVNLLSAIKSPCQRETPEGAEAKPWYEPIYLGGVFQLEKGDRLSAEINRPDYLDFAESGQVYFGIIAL

[4] = target: T2, TNFα (infliximab binding) (Homo sapiens, UniProt P01375); test: Binding of infliximab-HRP conjugate to immobilized TNFα; settings: 0, 2 or 6 μM peptide
T2 construct: ybbR tag (13 aa) (N); made in house; host or cells: Escherichia coli
T2 sequence (P01375 77-233 limits assumed): as above
Method: as §2
The four peptides were tested for inhibition of the TNFα-TNFR1 interaction by using the ELISA assay.

SMILES: CC(=O)[C@@H]1CCCN(C(=O)[C@@H](Cc2c[nH]cn2)NC(=O)C(N)C(C)C)C1 (some centres unmarked) [Compound C1-74-2]
- Kd (TNFα [1]): 40 ± 7 nM
- Reduction of TNFα-induced luciferase activity [2]: ~50%
- metabolised at 8 h, 5 μM (Serum stability test): ~15%
- Competition with FITC-labeled C1 for binding to TNFα (TNFα [3]): competed with FITC-labeled C1 for binding to TNFα
- Inhibition of infliximab binding to surface-immobilized TNFα [4]: inhibited the binding of anti-TNFα antibody infliximab to a surface-immobilized TNFα in a concentration-dependent manner
